From patent publication US11958865B1, “Leucine-rich repeat kinase 2 (LRRK2) inhibitors” (H. Lundbeck A/S, priority 2022, dated 2024) come the findings set out here.

Read-outs that look alike come from different tables or passages of the source.

One data set addresses LRRK2 G2019S (Homo sapiens (Human), UniProt Q5S007, G2019S). The data set is described as follows: LRRK2 G2019S LanthaScreen TR-FRET kinase activity assay. The data set is classed as biochemical. The conditions noted are these: 250 pM kinase, 1.3 mM ATP, n≥2 tests. As for the experimental part: (§1) LRRK2 kinase activity was measured using a LanthaScreen kinase activity assay available from Invitrogen (Life Technologies Corporation). […] The phosphorylated peptide is recognized by a terbium-labelled phospho-specific anti-LRRKtide antibody (pLRRKtide antibody), obtainable from Life Technologies Corporation) and, subsequently, the phosphorylated LRRKtide can be quantified by the extent of TR-FRET between the terbium donor and fluorescein acceptor.
(§2) As discussed above, this mutation increases the kinase activity relative to the wild type. The kinase reactions were performed in a 20 μL volume in 384-well plates. The kinase reaction buffer consisted of 50 mM Tris pH 8.5, 0.01% BRIJ-35, 10 mM MgCl2, 1 mM EGTA, and 2 mM DTT.
(§3) The mixture was further incubated for 30 minutes at RT. TR-FRET was measured by excitation of the terbium-donor with 340 nm light and subsequent (delay time […]) measurement of terbium and fluorescein emission at 495 nm and 520 nm, respectively, over a time window of […]. The measurement was repeated 30 times for fluorescein and 30 times for terbium emission with a […] between repeats. TR-FRET measurements were performed on a Biotek Synergy plate. The TR-FRET signal was calculated as the emission-ratio at 520 nm over 495 nm.
(§4) Test compound potency (IC50) was estimated by nonlinear regression using the sigmoidal dose-response (variable slope) using Xlfit 4 (IDBS, Guildford, Surrey, UK, model 205). Were the IC50 could not be determined the % inhibition at the highest tested concentration is given by equation 1. Equation (1): y=(A+((B−A)/(1+((C/x)^D)))) (1)
(§5) where y is the normalized TR-TRET ratio measurement for a given concentration of test compound, x is the concentration of test compound, A is the estimated efficacy (% inhibition) at infinite compound dilution, and B is the maximal efficacy (% inhibition). C is the IC50 value and D is the Hill slope coefficient. IC50 estimates were obtained from independent experiment and the logarithmic average was calculated.

Data set [1] concerns the target T1, LRRK2 WT (Homo sapiens (Human), UniProt Q5S007). Briefly: LRRK2 wild-type ADP-Glo kinase assay. The format is biochemical. As to conditions: 0.5 nM kinase; 1.0 mM ATP; IC50=Ki,app+[E]/2; n≥2 tests; read-out: LRRK2 WT ADPGlo IC50. Here is the method:
LRRK2 kinase activity was measured using an ADP-Glo kinase assay from Promega Corporation. The assay is a homogeneous luminescence-based assay that measures ADP formed from a kinase reaction. The ADP is converted into ATP, which is used to generate light in a luciferase reaction. The luminescence generated correlates with kinase activity.
The LRRK2 kinase was obtained from Invitrogen (Life Technologies Corporation) and comprises residue 970 to 2527 of the full length human wild-type LRRK2 kinase. The kinase reactions were performed in a 10 μL volume in 384-well plates. The kinase reaction buffer consisted of 50 mM Tris pH 8.5, 0.01% BRIJ-35, 10 mM MgCl2, 1 mM EGTA, and 2 mM DTT.
The reaction mixture (10 μl total volume) was incubated for 3 hours at room temperature (RT, ca. 25° C.), before the reaction was terminated by addition of 10 μl ADP-Glo reagent. The mixture was further incubated for 60 minutes at RT before addition of 20 μl Kinase detection reagent from the ADP-Glo assay kit. Luminescence signal was measure on a BMG Labtech Pherastar FSX multimode microplate reader. The signal integration time was 0.5 s.
Test compound potency (Ki,app) was estimated by nonlinear regression using the tight-binding fit model in GeneData Screener (GeneData AG). In cases where the Ki,app could not be determined, the % inhibition at the highest tested concentration is reported. The tight-binding fit model is given by euquation (2). […] Ki,app is the apparent dissociation constant of the inhibitor. The IC50 can be calculated as given by equation (3). Equation (3): IC50=Ki,app+[E]/2 (3) IC50 estimates were obtained from independent experiment and the logarithmic average was calculated.

In data set [2] the target is T1, LRRK2 WT. The data set is described as follows: LRRK2 wild-type LanthaScreen TR-FRET kinase activity assay. The format is biochemical. As to conditions: 1 nM kinase, 1.3 mM ATP, n≥2 tests. Here is the method: as §1, §2, §3, §4, §5
Data set [3] is described as follows: Rat brain disposition after oral gavage. The format is in vivo, male Sprague-Dawley rats. As to conditions: male, Sprague-Dawley, mean ± stdev; for Kp at 1 h / Kp uu at 1 h / concentration at 1 h: oral 5 mg/kg. Here is the method: Brain disposition was evaluated in male Sprague-Dawley rats (n=3, standard body weight). Briefly, test compound was formulated as a simple suspension (0.5% HPMC in water) then administered by oral gavage (10 mg/kg, 10 mL/kg or 5 mg/kg, 10 mL/kg). At the designated time point (0.5 or 1 h post dose) rats were sacrificed and terminal blood and brain samples taken. Isolated plasma and brain homogenates were extracted by standard protein precipitation in acetonitrile, containing internal standard. Diluted extracts were analyzed by liquid-chromatography coupled with tandem mass spectrometry detection (LC-MS/MS) using a bioanalytical method. Concentrations of test compound in plasma and brain were quantified against matrix matched calibration standards. The total plasma and brain concentration time data are presented in Table 4 alongside the calculated brain Kp (total brain concentration:total plasma concentration ratio).
The total brain-to-plasma partition coefficient (brain Kp) is given by the ratio of the total brain concentration and total plasma concentration of the compound according to the equation below: […]
Based on the measured rat fuplasma and fubrain values and the brain Kp the unbound brain-to-plasma partition coefficient (brain Kp,uu for each compound was calculated. The Kp,uu parameter describes the extent of brain penetration for each compound, i.e. the parameter gives a direct quantitative description of how the blood-brain barrier (BBB) handles the compounds regarding passive transport and active influx/efflux. The brain Kp,uu is given by the equation below: […]

The nature of data set [4]: Fraction unbound in rat plasma and brain homogenate by equilibrium dialysis. The data set is classed as in vitro ADME, male Sprague-Dawley rat. As to conditions: 1 μM, equilibrium dialysis 5 h at 37° C.; for fubrain (% free): rat brain homogenate; for fuplasma (% free): rat plasma. As for the experimental part:
The fraction of unbound compound in male Sprague-Dawley rat plasma (fuplasma) and brain homogenate (fubrain) were determined by equilibrium dialysis using 96-well HTD-dialysis plates with dialysis membranes (molecular weight cut off 12-14 KDa). One side of the HTD-dialysis plate was loaded with matrix (plasma or brain homogenate) and the other side with buffer (100 mM sodium phosphate buffer, pH 7.4). Test compounds were dissolved in DMSO then spiked (5 μL of 0.2 mM) into blank (995 μL) plasma or diluted brain homogenate (1:4 ratio in phosphate buffer) giving a final nominal concentration 1 μM (≤0.5% DMSO). The matrices were loaded into respective chambers and equilibrated against phosphate buffer for 5 h at 37° C. (in a humidified air incubator with 5% CO2 with shaking). Samples from both chambers (buffer and plasma or brain homogenate) were aliquoted to fresh 96-well polypropylene plates then matrix matched using an equal volume of opposite blank matrix before extraction with cold solvent (3 volumes acetonitrile) containing an appropriate bioanalytical internal standard. After centrifugation (20 min, 3200 g, 4° C.) the supernatants were diluted with appropriate volumes of water and compound concentrations were quantified by LC/MS-MS against matrix matched calibration standards. The fuplasma and fubrain were calculated according to equation 4 below.
[formula] Where [F] is the compound concentration on the buffer (receiver) side of the membrane; [T] is the compound concentration on the plasma or brain (donor) side of the membrane; D is the matrix dilution factor which is determined as D=4 for brain matrix and D=1 for plasma matrix in these assays.
Background: In equilibrium dialysis free small molecules cross a membrane that holds back macromolecules.

Data set [5] is described as follows: Hepatic microsomal intrinsic clearance assay. The format is in vitro ADME. As to conditions: for CLint scaled at 1 μM: pooled liver microsomes, pH 7.4, liver microsomes 0.5 mg/mL, NADPH, 1 hour at 37° C., LLOQ 0.36 L/h/kg. Here is the method: Compounds (final concentration 1 μM, 1% organic) of the invention were incubated for 1 hour at 37° C., with shaking, in phosphate buffer (pH 7.4) containing commercially sourced pooled liver microsomes (final concentration 0.5 mg/mL). […] At designated time points (0, 5, 10, 20, 30 and 60 minutes) ice-cold acetonitrile containing internal standard (300 μL) was added to an incubation well to stop the reaction then mixed and centrifuged (3220 g for 20 minutes at 4° C.). Supernatant was diluted (1:4) with deionized water then analyzed by LC-MS/MS.
On the technique in general: Liver microsomes are a subcellular fraction often used to study metabolism.

Where [6] appears, read: brain, n=3, read-out: Total brain concentration.
The mark [7] stands for this setting: plasma, n=3, read-out: Total plasma concentration.
[8] abbreviates: brain, oral 10 mg/kg, 0.5 h, n=3.

T1 sequence (Q5S007 970-2527): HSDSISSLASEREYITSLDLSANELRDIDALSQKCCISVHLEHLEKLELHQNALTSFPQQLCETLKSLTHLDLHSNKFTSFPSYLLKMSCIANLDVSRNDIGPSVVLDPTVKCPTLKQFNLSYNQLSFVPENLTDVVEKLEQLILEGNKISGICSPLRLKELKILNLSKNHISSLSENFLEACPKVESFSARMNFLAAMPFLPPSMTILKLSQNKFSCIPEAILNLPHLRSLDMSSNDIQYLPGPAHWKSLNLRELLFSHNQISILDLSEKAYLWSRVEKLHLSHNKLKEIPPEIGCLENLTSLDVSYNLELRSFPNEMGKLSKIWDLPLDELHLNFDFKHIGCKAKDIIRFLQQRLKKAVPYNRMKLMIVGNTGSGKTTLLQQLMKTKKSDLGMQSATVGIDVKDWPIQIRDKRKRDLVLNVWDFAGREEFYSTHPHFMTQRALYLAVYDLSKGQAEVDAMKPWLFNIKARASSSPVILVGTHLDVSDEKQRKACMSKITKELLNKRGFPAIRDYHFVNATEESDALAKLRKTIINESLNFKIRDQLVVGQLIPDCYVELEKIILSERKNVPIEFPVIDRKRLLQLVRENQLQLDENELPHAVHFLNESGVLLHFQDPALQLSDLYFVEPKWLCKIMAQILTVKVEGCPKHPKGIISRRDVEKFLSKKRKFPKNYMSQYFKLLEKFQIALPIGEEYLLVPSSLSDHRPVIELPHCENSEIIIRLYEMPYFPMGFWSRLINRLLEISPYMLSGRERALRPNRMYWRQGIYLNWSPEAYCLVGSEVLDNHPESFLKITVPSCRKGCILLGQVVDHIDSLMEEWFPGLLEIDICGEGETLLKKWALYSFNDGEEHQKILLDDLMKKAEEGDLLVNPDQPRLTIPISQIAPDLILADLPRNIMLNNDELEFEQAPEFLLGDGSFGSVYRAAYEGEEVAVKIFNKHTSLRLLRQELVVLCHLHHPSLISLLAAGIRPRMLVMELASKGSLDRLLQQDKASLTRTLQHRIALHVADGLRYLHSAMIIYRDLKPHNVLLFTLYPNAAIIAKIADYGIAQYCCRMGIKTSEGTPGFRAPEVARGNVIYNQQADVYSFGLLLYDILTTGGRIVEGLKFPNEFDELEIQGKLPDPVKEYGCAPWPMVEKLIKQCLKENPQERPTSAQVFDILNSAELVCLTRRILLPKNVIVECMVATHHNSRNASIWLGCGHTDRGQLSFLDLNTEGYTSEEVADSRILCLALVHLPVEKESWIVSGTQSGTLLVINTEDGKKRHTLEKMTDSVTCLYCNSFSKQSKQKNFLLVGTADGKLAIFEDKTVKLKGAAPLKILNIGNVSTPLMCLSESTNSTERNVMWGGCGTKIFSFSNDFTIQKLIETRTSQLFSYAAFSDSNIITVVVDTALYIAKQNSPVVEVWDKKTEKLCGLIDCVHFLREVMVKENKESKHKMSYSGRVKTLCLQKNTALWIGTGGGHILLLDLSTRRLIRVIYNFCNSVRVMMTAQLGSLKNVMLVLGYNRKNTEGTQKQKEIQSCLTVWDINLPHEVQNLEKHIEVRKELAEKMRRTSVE
Chain of LRRK2 G2019S (Q5S007 970-2527 G2019S): as the sequence (Q5S007 970-2527) above, with G1050S counted along it

For the molecule `CCc1c2c(nn1-c1cccnc1C)OCCCn1nc(Cl)c3cnc(nc31)N2` [Example 8, 8-Chloro-3-ethyl-2-(2-methylpyridin-3-yl)-2,4,12,13-tetrahydro-11H-5,7-(azenometheno)dipyrazolo[3,4-b:5′,1′-g][1]oxa[4,6,8]triazacycloundecine], the IC50 came to 12 nM on LRRK2 G2019S, 2.5 nM on LRRK2 WT [1] and 35 nM at LRRK2 WT [2]. Also, the Kp at 1 h in data set [3] (brain, n=3) was 0.9 ± 0.1. The same molecule registered a Kp uu at 1 h in data set [3] (brain, n=3) of 0.37 ± 0.03. Besides, the concentration at 1 h worked out at 279 ± 10 ng/g in data set [3] (setting [6]) and 297 ± 29 ng/mL in data set [3] (setting [7]). For the same molecule, the “fubrain (% free)” value in data set [4] worked out at 7.5 % free. In addition, the “fuplasma (% free)” value in data set [4] amounted to 19.3 % free. This molecule also showed an intrinsic metabolic clearance (CLint scaled) at 1 μM in data set [5] of 16.8 mL/min/kg.

For the molecule `Cc1c2c(nn1-c1cccnc1OC(F)F)OCCCn1nc(Cl)c3cnc(nc31)N2` [Example 19, 8-Chloro-2-(2-(difluoromethoxy)pyridin-3-yl)-3-methyl-2,4,12,13-tetrahydro-11H-5,7-(azenometheno)dipyrazolo[3,4-b:5′,1′-g][1]oxa[4,6,8]triazacycloundecine], the figures for the IC50 at LRRK2 G2019S, at LRRK2 WT [1] and on LRRK2 WT [2] were 0.35 nM, 0.32 nM and 1.1 nM, respectively. In addition, the Kp at 1 h in data set [3] (brain, n=3) was found to be 2.8 ± 0.5. Besides, in data set [3] (brain, n=3), the Kp uu at 1 h amounted to 0.87 ± 0.17. The concentration at 1 h in data set [3] (setting [6]) was determined as 48 ± 11 ng/g; in data set [3] (setting [7]), 19 ± 8 ng/mL. In addition, the “fubrain (% free)” value in data set [4] was determined as 2.7 % free. The “fuplasma (% free)” value in data set [4] stood at 8.6 % free. Also, the “Rate of metabolism classification (liver microsomal CLint)” value in data set [5] (based on liver microsomal CLint values of Table 6) is “moderate to high rate of metabolism”. The molecule further gave a CLint scaled at 1 μM in data set [5] of 33.8 mL/min/kg.

Take `Cc1c2c(nn1-c1cccnc1OCF)OCCCn1nc(Cl)c3cnc(nc31)N2` [Example 18, 8-Chloro-2-(2-(fluoromethoxy)pyridin-3-yl)-3-methyl-2,4,12,13-tetrahydro-11H-5,7-(azenometheno)dipyrazolo[3,4-b:5′,1′-g][1]oxa[4,6,8]triazacycloundecine]: the IC50 was 0.49 nM on LRRK2 G2019S, 0.44 nM at LRRK2 WT [1] and 0.67 nM at LRRK2 WT [2]. Also, the Kp at 1 h in data set [3] (brain, n=3) is 2.8 ± 0.6. The Kp uu at 1 h in data set [3] (brain, n=3) was found to be 1.04 ± 0.21. Further, the results for the concentration at 1 h in data set [3] (setting [6]) and in data set [3] (setting [7]) were 343 ± 54 ng/g and 122 ± 11 ng/mL, respectively. In data set [4], the “fubrain (% free)” value is reported as 4.7 % free. In data set [4], the “fuplasma (% free)” value stood at 12.8 % free. Moreover, in data set [5], the CLint scaled at 1 μM was 11.2 mL/min/kg.

Take `Cc1c2c(nn1-c1cccnc1OC1CC1)OCCCn1nc(Cl)c3cnc(nc31)N2` [Example 16, 8-Chloro-2-(2-cyclopropoxypyridin-3-yl)-3-methyl-2,4,12,13-tetrahydro-11H-5,7-(azenometheno)dipyrazolo[3,4-b:5′,1′-g][1]oxa[4,6,8]triazacycloundecine]: the results for the IC50 at LRRK2 G2019S, on LRRK2 WT [1] and at LRRK2 WT [2] were 0.93 nM, 0.57 nM and 2.1 nM, respectively. In data set [3] (brain, n=3), this molecule had a Kp at 1 h of 1.3 ± 0.2. The Kp uu at 1 h in data set [3] (brain, n=3) was found to be 0.32 ± 0.06. For the same molecule, the results for the concentration at 1 h in data set [3] (setting [6]) and in data set [3] (setting [7]) were 141 ± 30 ng/g and 112 ± 18 ng/mL, respectively. In addition, the “fubrain (% free)” value in data set [4] is reported as 3.5 % free. Also, the “fuplasma (% free)” value in data set [4] is reported as 13.9 % free. For the same molecule, the CLint scaled at 1 μM in data set [5] is 18.7 mL/min/kg.

On to `CCOc1ncccc1-n1nc2c(c1C)Nc1ncc3c(Cl)nn(c3n1)CCCO2` [Example 2, 8-Chloro-2-(2-ethoxypyridin-3-yl)-3-methyl-2,4,12,13-tetrahydro-11H-5,7-(azenometheno)dipyrazolo[3,4-b:5′,1′-g][1]oxa[4,6,8]triazacycloundecine], for which the results for the IC50 on LRRK2 G2019S, at LRRK2 WT [1] and on LRRK2 WT [2] were 0.35 nM, 0.28 nM and 0.98 nM, respectively. The Kp at 0.5 h in data set [3] (setting [8]) turned out to be 1.2 ± 0.7. This molecule gave a Kp uu at 0.5 h in data set [3] (setting [8]) of 0.35 ± 0.18. Further, the concentration at 0.5 h in data set [3] (brain, oral 10 mg/kg, 0.5 h, n=3, read-out: Total brain concentration) was found to be 31 ± 11 ng/g; in data set [3] (plasma, oral 10 mg/kg, 0.5 h, n=3, read-out: Total plasma concentration), 32 ± 18 ng/mL. The “fubrain (% free)” value in data set [4] stood at 2.7 % free. For the same molecule, the “fuplasma (% free)” value in data set [4] was found to be 9.7 % free. The same molecule gave a CLint scaled at 1 μM in data set [5] of 20.8 mL/min/kg.

What is called IC50 is the concentration needed to halve the response being measured. The CLint scaled is the rate of metabolic loss divided by the concentration.
